Data: ChEMBL document CHEMBL1201862, “PubChem BioAssay data set” (2004)
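In this assay, cells in 96-well plates receive the compound at five concentrations for 48 hours. Endpoints are linearly interpolated between the surrounding concentrations. GI50: concentration for 50% inhibition of growth.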 The source made the active and inactive calls. Rule as the data show it: active = GI50 up to about 1.1 µM and inactive = higher.

Experiments:
Assay in all cases: growth of human tumour cells (NCI), 48 h
HCC 2998 = test system: HCC 2998
NCI-H522 = test system: NCI-H522
MDA-MB-435 = test system: MDA-MB-435
HOP-62 = test system: HOP-62
BT-549 = test system: BT-549
SK-MEL-5 = test system: SK-MEL-5
HCT-116 = test system: HCT-116
KM12 = test system: KM12
SNB-19 = test system: SNB-19
NCI-H460 = test system: NCI-H460
UACC-62 = test system: UACC-62
NCI-H23 = test system: NCI-H23
HL-60 = test system: HL-60
CAKI-1 = test system: CAKI-1
OVCAR-4 = test system: OVCAR-4
SW-620 = test system: SW-620
NCI/ADR-RES = test system: NCI/ADR-RES
M14 = test system: M14
UO-31 = test system: UO-31
TK-10 = test system: TK-10

Measured: GI50

CC(N)(Cc1c[nH]c2ccccc12)C(=O)O (stereo not given)
inactive: HCC 2998 > 100 µM | NCI-H522 > 100 µM | MDA-MB-435 > 100 µM | HOP-62 > 100 µM | BT-549 > 100 µM | SK-MEL-5 > 100 µM | HCT-116 > 100 µM | KM12 > 100 µM | SNB-19 > 100 µM | NCI-H460 > 100 µM | UACC-62 > 100 µM | NCI-H23 > 100 µM | HL-60 > 100 µM | CAKI-1 > 100 µM | OVCAR-4 > 100 µM | SW-620 > 100 µM | NCI/ADR-RES > 100 µM | M14 > 100 µM | UO-31 > 100 µM | TK-10 > 100 µM

O=C1NC(=O)C(c2c[nH]c3cc(Br)ccc23)=C1c1cn(C(c2ccccc2)(c2ccccc2)c2ccccc2)cn1
inactive: HCC 2998 12.6 µM | NCI-H522 13.3 µM | MDA-MB-435 6.24 µM | HOP-62 24.7 µM | BT-549 16 µM | SK-MEL-5 10.5 µM | HCT-116 10.5 µM | KM12 9.23 µM | SNB-19 23.9 µM | NCI-H460 11.1 µM | UACC-62 18.2 µM | NCI-H23 11.3 µM | HL-60 13.7 µM | CAKI-1 22.6 µM | OVCAR-4 26.5 µM | SW-620 15.7 µM | NCI/ADR-RES 27.2 µM | M14 13.2 µM | UO-31 14.8 µM | TK-10 16.2 µM

CC(C)=CCc1cc2c(cc1O)OC[C@H]1c3cc4c(cc3O[C@@H]21)OCO4
inactive: HCC 2998 > 10 µM | NCI-H522 32.6 µM | MDA-MB-435 32.6 µM | HOP-62 91.6 µM | BT-549 23.4 µM | SK-MEL-5 20.3 µM | HCT-116 17.1 µM | KM12 39.6 µM | SNB-19 66.1 µM | NCI-H460 21.2 µM | UACC-62 > 100 µM | NCI-H23 33.2 µM | HL-60 23.8 µM | CAKI-1 25.1 µM | OVCAR-4 37.4 µM | SW-620 36.5 µM | NCI/ADR-RES 29.8 µM | M14 62.1 µM | UO-31 31.6 µM | TK-10 39.8 µM

COc1ccc(C23OCC(Cc4cc(OC)c(OC)cc42)C3CO)cc1OC (stereo not given)
inactive: HCC 2998 > 100 µM | NCI-H522 > 100 µM | MDA-MB-435 > 100 µM | HOP-62 > 100 µM | BT-549 > 100 µM | SK-MEL-5 > 100 µM | HCT-116 > 100 µM | KM12 > 100 µM | SNB-19 > 100 µM | NCI-H460 > 100 µM | UACC-62 > 100 µM | NCI-H23 > 100 µM | HL-60 > 100 µM | CAKI-1 > 100 µM | OVCAR-4 > 100 µM | SW-620 > 100 µM | NCI/ADR-RES > 100 µM | M14 > 100 µM | UO-31 > 100 µM | TK-10 > 100 µM
